“And” between values parts separate entries of the source, which are not always exact repeats. Identical values can stand only once.
Key:
Assay type in all cases: in vivo, human
IGFBP-3 [1] = experiment: Example 2 second double blind, placebo controlled, randomized study: serum IGFBP-3; conditions: for IGFBP-3: serum
Description: (§1) A second double blind, placebo controlled, randomized study was designed to investigate the ability of growth hormone secretagogues to be used for the treatment of cell proliferative disorders.
(§2) Subjects were separated into groups and administered a placebo or RC-1291 (Formula III). Each group was administered the appropriate number of capsules. The capsules were microcrystalline cellulose, magnesium stearate and RC-1291 HCl (25 mg) in a hard gelatin capsule. The placebo capsule was microcrystalline cellulose in a hard gelatin capsule. The RC-1291 groups received 50 mg or 100 mg of RC-1291 daily.
(§3) Serum was obtained at office visits, clearly labeled, and stored frozen at −20° C. prior to shipment on dry ice to CRL, Lenexa, Kans. for analysis. Samples were assayed for IGF-1 and IGFBP-3.

[2] = Example 3 cancer cachexia: total body weight, subjects of Example 2; conditions: 50 and 100 mg, FIG. 12
Description: (§4) The placebo controlled, randomized studies described above were used to investigate the ability of growth hormone secretagogues to treat subjects having cancer cachexia.
(§5) Total body mass and lean body mass were measured for subjects described in Example 1 (see FIGS. 10, and 11, respectively.) Lean body mass and total body mass were measured by dual-energy x-ray absorptiometry (DEXA). Total body weight was measured for subjects described in Example 2 (see, FIG. 12).

[3] = Example 3 cancer cachexia: lean body mass and total body mass by DEXA, subjects of Example 1; conditions: FIG. 11
Description: as §4, §5

IGFBP-3 [4] = experiment: Example 1 double blind, placebo controlled, randomized study: IGFBP-3 levels
Description: (§6) A double blind, placebo controlled, randomized study was designed to investigate the ability of growth hormone secretagogues to be used for the treatment of cell proliferative disorders.
(§7) Subjects were separated in to two groups: the placebo group and the RC-1291 group. The RC-1291 group received 50 mg of RC-1291 in two 25 mg capsules daily. The capsules were microcrystalline cellulose, magnesium stearate and RC-1291 HCl (25 mg) in a hard gelatin capsule. The placebo group received two placebo capsules daily. The placebo capsule was microcrystalline cellulose in a hard gelatin capsule.
(§8) One hour before breakfast subjects were administered the two capsules after fasting during the night.
(§9) At various points over the course of the three month study, levels of IGFBP-3 and IGF-1 were measured in both the placebo and RC-1291 groups.

IGF-1 [5] = experiment: Example 2 second double blind, placebo controlled, randomized study: serum IGF-1; conditions: for IGF-1: serum
Description: as §1, §2, §3

IGF-1 [6] = experiment: Example 1 double blind, placebo controlled, randomized study: IGF-1 levels
Description: as §6, §7, §8, §9

[7] = Example 2, 50 mg or 100 mg daily, vs placebo
[8] = 50 mg RC-1291 daily, capsules, at 4 weeks, N = 32
[9] = 50 mg RC-1291 daily, capsules, at 8 weeks, N = 32
[10] = 50 mg RC-1291 daily, capsules, at 12 weeks, N = 32
[11] = Example 1, 50 mg daily, vs placebo

With `CN(C)N(C)C(=O)[C@@]1(Cc2ccccc2)CCCN(C(=O)[C@@H](Cc2c[nH]c3ccccc23)NC(=O)C(C)(C)N)C1` [RC-1291] the IGFBP-3 (IGFBP-3 [1]; 50 mg daily, week 1) was 580 ng/mL and 20.19 nM, the IGFBP-3 (IGFBP-3 [1]; 50 mg daily, week 2) was 540 ng/mL and 18.79 nM and the IGFBP-3 (IGFBP-3 [1]; 50 mg daily, week 4) was 610 ng/mL and 21.23 nM. The IGFBP-3 (IGFBP-3 [1]; 100 mg daily, week 1) was 900 ng/mL and 31.32 nM, the IGFBP-3 (IGFBP-3 [1]; 100 mg daily, week 2) was 670 ng/mL and 23.32 nM and the IGFBP-3 (IGFBP-3 [1]; 100 mg daily, week 4) was 970 ng/mL and 33.76 nM. The “levels of IGFBP-3 (in words)” value (IGFBP-3 [1]; [7]) was “raised the levels of both IGFBP-3 and IGF-1 in a statistically significant manner”, the “change in total body weight (in words)” value [2] was “gained lean body mass and total body weight” and the “change in lean body mass (in words)” value [3] was “gained lean body mass and total body weight”. The “IGFBP-3 change from baseline (nM) At 4 weeks” value (IGFBP-3 [4]; [8]) was 26.89 nM, the “IGFBP-3 change from baseline (nM) At 8 weeks” value (IGFBP-3 [4]; [9]) was 17.7 nM and the “IGFBP-3 change from baseline (nM) At 12 weeks” value (IGFBP-3 [4]; [10]) was 20.66 nM. For the same compound, the “effects on IGFBP-3 relative to effects on IGF-1, on a molar basis” value (IGFBP-3 [4]; Example 1, 50 mg daily) was “greater than 3 fold”, the “levels of IGFBP-3 (in words)” value (IGFBP-3 [4]; [11]) was “raises the levels of both IGFBP-3 and IGF-1 in a statistically significant manner” and the IGF-1 (IGF-1 [5]; 50 mg daily, week 1) was 40.69 ng/mL and 5.32 nM. The IGF-1 (IGF-1 [5]; 50 mg daily, week 2) was 57 ng/mL and 7.45 nM, the IGF-1 (IGF-1 [5]; 50 mg daily, week 4) was 46.5 ng/mL and 6.08 nM and the IGF-1 (IGF-1 [5]; 100 mg daily, week 1) was 80.25 ng/mL and 10.49 nM. The IGF-1 (IGF-1 [5]; 100 mg daily, week 2) was 76.25 ng/mL and 9.97 nM, the IGF-1 (IGF-1 [5]; 100 mg daily, week 4) was 73.4 ng/mL and 9.60 nM and the “levels of IGF-1 (in words)” value (IGF-1 [5]; [7]) was “raised the levels of both IGFBP-3 and IGF-1 in a statistically significant manner”. For the same compound, the “IGF-1 change from baseline (nM) At 4 weeks” value (IGF-1 [6]; [8]) was 6.626 nM, the “IGF-1 change from baseline (nM) At 8 weeks” value (IGF-1 [6]; [9]) was 4.729 nM and the “IGF-1 change from baseline (nM) At 12 weeks” value (IGF-1 [6]; [10]) was 5.046 nM. For the same compound, the “levels of IGF-1 (in words)” value (IGF-1 [6]; [11]) was “raises the levels of both IGFBP-3 and IGF-1 in a statistically significant manner”.

From patent US20080207640A1, “Method of treating cell proliferative disorders using growth hormone secretagogues” (Sapphire Therapeutics, priority 2007, published 2008)
